Target: LRRK2 G2019S (Homo sapiens, UniProt Q5S007, G2019S)
Experiment: LRRK2 G2019S Km ATP LanthaScreen assay
Assay type: biochemical
Details: read-out: LRRK2 pIC50 (converted)

LRRK2 G2019S, sequence (Q5S007 whole entry G2019S): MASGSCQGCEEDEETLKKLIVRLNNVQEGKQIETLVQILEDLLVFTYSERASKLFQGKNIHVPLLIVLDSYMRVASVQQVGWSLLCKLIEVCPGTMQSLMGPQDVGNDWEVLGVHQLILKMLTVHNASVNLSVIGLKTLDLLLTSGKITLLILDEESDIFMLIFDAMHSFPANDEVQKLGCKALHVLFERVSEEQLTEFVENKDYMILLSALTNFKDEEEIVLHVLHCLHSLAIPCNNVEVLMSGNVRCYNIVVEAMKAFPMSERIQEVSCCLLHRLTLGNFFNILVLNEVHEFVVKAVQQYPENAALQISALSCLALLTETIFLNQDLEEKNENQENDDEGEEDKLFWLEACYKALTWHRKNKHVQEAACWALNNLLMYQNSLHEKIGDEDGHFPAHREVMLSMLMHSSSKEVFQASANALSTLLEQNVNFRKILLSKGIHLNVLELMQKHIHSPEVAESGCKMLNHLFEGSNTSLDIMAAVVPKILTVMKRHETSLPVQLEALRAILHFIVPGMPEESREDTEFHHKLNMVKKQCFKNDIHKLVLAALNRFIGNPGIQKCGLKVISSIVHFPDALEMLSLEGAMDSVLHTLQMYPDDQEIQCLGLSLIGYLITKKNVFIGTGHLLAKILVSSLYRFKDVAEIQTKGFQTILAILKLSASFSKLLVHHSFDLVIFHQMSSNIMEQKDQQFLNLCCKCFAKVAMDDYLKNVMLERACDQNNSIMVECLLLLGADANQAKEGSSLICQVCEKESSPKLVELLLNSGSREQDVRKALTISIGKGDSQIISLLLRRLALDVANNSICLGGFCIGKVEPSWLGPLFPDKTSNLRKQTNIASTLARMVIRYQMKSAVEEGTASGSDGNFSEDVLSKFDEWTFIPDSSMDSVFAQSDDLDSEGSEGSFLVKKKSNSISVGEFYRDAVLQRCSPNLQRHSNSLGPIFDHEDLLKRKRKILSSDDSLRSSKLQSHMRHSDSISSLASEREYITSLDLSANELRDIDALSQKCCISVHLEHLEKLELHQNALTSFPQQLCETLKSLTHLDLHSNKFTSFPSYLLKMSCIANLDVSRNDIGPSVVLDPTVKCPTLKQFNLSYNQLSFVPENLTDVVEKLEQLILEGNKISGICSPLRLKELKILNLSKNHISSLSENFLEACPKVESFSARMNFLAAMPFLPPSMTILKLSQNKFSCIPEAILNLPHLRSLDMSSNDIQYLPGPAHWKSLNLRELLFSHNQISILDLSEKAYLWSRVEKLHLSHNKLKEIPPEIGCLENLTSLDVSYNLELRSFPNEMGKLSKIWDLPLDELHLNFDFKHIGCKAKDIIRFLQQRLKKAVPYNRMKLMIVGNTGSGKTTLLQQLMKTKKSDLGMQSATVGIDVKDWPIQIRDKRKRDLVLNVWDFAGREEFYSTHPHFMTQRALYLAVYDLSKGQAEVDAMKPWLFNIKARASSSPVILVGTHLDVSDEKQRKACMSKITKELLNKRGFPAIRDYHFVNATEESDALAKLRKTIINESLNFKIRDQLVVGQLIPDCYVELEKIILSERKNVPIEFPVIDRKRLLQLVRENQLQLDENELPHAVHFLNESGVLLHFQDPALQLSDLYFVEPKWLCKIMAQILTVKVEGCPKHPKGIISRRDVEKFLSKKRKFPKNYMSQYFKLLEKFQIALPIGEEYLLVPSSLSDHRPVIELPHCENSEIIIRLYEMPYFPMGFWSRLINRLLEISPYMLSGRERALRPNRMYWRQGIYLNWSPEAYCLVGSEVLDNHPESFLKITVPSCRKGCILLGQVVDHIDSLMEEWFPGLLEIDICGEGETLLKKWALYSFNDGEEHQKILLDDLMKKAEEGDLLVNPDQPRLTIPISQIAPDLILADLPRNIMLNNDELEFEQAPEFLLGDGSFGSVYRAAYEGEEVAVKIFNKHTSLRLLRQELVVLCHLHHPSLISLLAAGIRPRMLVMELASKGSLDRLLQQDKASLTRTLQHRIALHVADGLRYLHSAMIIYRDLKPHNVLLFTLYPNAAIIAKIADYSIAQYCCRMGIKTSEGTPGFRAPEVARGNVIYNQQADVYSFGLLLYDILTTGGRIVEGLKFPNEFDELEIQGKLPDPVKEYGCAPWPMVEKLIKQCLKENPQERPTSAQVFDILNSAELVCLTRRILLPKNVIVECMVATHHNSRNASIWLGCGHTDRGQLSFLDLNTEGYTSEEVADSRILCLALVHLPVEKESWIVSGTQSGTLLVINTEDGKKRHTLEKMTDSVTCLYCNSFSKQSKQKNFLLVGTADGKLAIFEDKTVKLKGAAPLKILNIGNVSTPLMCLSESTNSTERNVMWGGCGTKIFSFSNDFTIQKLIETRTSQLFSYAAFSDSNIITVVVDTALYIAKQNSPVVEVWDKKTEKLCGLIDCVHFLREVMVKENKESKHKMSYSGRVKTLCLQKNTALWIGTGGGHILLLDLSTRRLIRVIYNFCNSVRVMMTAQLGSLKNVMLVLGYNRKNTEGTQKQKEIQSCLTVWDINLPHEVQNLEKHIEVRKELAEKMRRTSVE

Row | Compound | IC50
1 | Cc1cc2cnc(NC(=O)C3CC3c3ccccn3)cc2cc1C1CCN(C2(C)CCOC2)CC1 (single isomer, unassigned) [Ex-16.10, N-(7-methyl-6-(1-(3-methyltetrahydrofuran-3-yl)piperidin-4-yl)isoquinolin-3-yl)-2-(pyridin-2-yl)cyclopropane-1-carboxamide] | 0.0813 nM
2 | Cn1cc(C(C)(C)C(=O)Nc2cc3cc(C4CCN(C5(C)COCC5F)CC4)c(Cl)cc3cn2)cn1 (single isomer, unassigned) [Ex-6.54, N-(7-chloro-6-(1-(4-fluoro-3-methyltetrahydrofuran-3-yl)piperidin-4-yl)isoquinolin-3-yl)-2-methyl-2-(1-methyl-1H-pyrazol-4-yl)propenamide] | 27.5 nM
3 | N#CC1(c2cc3cc(NC(=O)C4CC4c4ccccn4)ncc3cc2F)CC12CC2 (single isomer, unassigned) [Ex-18.14, (1R,2R or 1S,2S)-N-(6-((R or S)-1-cyanospiro[2.2]pentan-1-yl)-7-fluoroisoquinolin-3-yl)-2-(pyridin-2-yl)cyclopropane-1-carboxamide] | 60.3 nM
4 | CC1(C)CC1(C#N)c1ccc2cnc(NC(=O)C3CC3)cc2c1 (single isomer, unassigned) [Ex-18.3, (R or S)-N-(6-(1-cyano-2,2-dimethylcyclopropyl)isoquinolin-3-yl)cyclopropanecarboxamide] | 24 nM
5 | O=C(Nc1cc2cc(C3CCN(C4COC4)CC3F)c(Cl)cc2cn1)C1CC1 (single isomer, unassigned) [Ex-14.2, N-(7-chloro-6-((3R,4R,3S,4R,3R,4S or 3S,4S)-3-fluoro-1-(oxetan-3-yl)piperidin-4-yl)isoquinolin-3-yl)cyclopropanecarboxamide] | 4.07 nM
6 | CC1(C)CC(C(=O)Nc2cc3cc(C4CCN(C5(C)COCC5O)CC4)c(Cl)cc3cn2)CO1 (stereo not drawn) [Ex-2.30] | 0.126 nM
7 | O=C(Nc1cc2cc(C3CCN(C4COC4)CC3)c(Cl)cc2cn1)C1CCCC1 [Ex-7.5, N-(7-chloro-6-(1-(oxetan-3-yl)piperidin-4-yl)isoquinolin-3-yl)cyclopentanecarboxamide] | 5.5 nM
8 | CC(C)(O)c1cccc(CC(=O)Nc2cc3cc(C4(C#N)CC45CC5)ccc3cn2)c1 (single isomer, unassigned) [Ex-1.45, (R or S)-N-(6-(1-cyanospiro[2.2]pentan-1-yl)isoquinolin-3-yl)-2-(3-(2-hydroxypropan-2-yl)phenyl)acetamide] | 12.9 nM
9 | CCC1C(C(=O)Nc2cc3cc(C4CCN(C5(C)COCC5F)CC4)c(C)cc3cn2)C1c1cnn(C)c1 (single isomer, unassigned) [Ex-15.15, 2-ethyl-N-(6-(1-(4-fluoro-3-methyltetrahydrofuran-3-yl)piperidin-4-yl)-7-methylisoquinolin-3-yl)-3-(1-methyl-1H-pyrazol-4-yl)cyclopropane-1-carboxamide] | 58.9 nM
10 | O=C(Nc1cc2cc(C3CCC(N4CC(F)(F)C4)CC3)c(Cl)cc2cn1)C1CC1c1ccccn1 (single isomer, unassigned) [Ex-5.4, N-(7-chloro-6-(4-(3,3-difluoroazetidin-1-yl)cyclohexyl)isoquinolin-3-yl)-2-(pyridin-2-yl)cyclopropane-1-carboxamide] | 47.9 nM
11 | Cc1ccc(C2CC2C(=O)Nc2cc3cc(C4CCN(C5(C)COCC5O)CC4)c(Cl)cc3cn2)s1 (single isomer, unassigned) [Ex-4.58, N-(7-chloro-6-(1-(4-hydroxy-3-methyltetrahydrofuran-3-yl)piperidin-4-yl)isoquinolin-3-yl)-2-(5-methylthiophen-2-yl)cyclopropane-1-carboxamide] | 1.51 nM
12 | CC1C(C(=O)Nc2cc3cc(C4CCN(C5(C)COCC5F)CC4)c(Cl)cc3cn2)C1c1cnn(C)c1 (stereo not drawn) [Ex-2.80] | 0.0813 nM
13 | O=C(Nc1cc2cc(C3CCN(C4COC4)CC3)c(Cl)cc2cn1)C1CCC1 [Ex-7.4, N-(7-chloro-6-(1-(oxetan-3-yl)piperidin-4-yl)isoquinolin-3-yl)cyclobutanecarboxamide] | 5.89 nM
14 | O=C(Nc1cc2cc(C3CCN(C4COCC4O)CC3)c(Cl)cc2cn1)C1CC12CCOC2 (single isomer, unassigned) [Ex-8.5, N-(7-chloro-6-(1-(4-hydroxytetrahydrofuran-3-yl)piperidin-4-yl)isoquinolin-3-yl)-5-oxaspiro[2.4]heptane-1-carboxamide] | 0.1 nM
15 | Cc1cc2cnc(NC(=O)C3CC3C(F)F)cc2cc1C1CCN(C2(C)COCC2O)CC1 (stereo not drawn) [Ex-2.54] | 0.49 nM
16 | CC(C)N1CCOC(CC(=O)Nc2cc3cc(C4(C#N)CC45CC5)ccc3cn2)C1 (single isomer, unassigned) [Ex-1.46, (R or S)-N-(6-(1-cyanospiro[2.2]pentan-1-yl)isoquinolin-3-yl)-2-(4-isopropylmorpholin-2-yl)acetamide] | 13.8 nM
17 | CC1(N2CCC(c3cc4cc(NC(=O)C5CCCOC5)ncc4cc3Cl)CC2)COCC1O (stereo not drawn) [Ex-2.25] | 0.0813 nM

Row | Compound | IC50
18 | CC1(N2CCC(c3cc4cc(NC(=O)C5C6COCC65)ncc4cc3Cl)CC2)CCOC1 (single isomer, unassigned) [Ex-6.11, N-(7-chloro-6-(1-(3-methyltetrahydrofuran-3-yl)piperidin-4-yl)isoquinolin-3-yl)-3-oxabicyclo[3.1.0]hexane-6-carboxamide] | 1.95 nM
19 | O=C(Nc1cc2cc(C3CCC(N4CC(F)(F)C4)CC3)c(Cl)cc2cn1)C1CC1c1ccccn1 (single isomer, unassigned) [Ex-5.5, N-(7-chloro-6-(4-(3,3-difluoroazetidin-1-yl)cyclohexyl)isoquinolin-3-yl)-2-(pyridin-2-yl)cyclopropane-1-carboxamide] | 0.275 nM
20 | CC(C)C1CC(C(=O)Nc2cc3cc(C4CCN(C5(C)COCC5O)CC4)c(Cl)cc3cn2)C1 (racemic) [Ex-1.22, Rac-N-(7-chloro-6-(1-(4-hydroxy-3-methyltetrahydrofuran-3-yl)piperidin-4-yl)isoquinolin-3-yl)-3-isopropylcyclobutane-1-carboxamide] | 0.977 nM
21 | CC1(N2CCC(c3cc4cc(NC(=O)C5CC5C5CCCCO5)ncc4cc3Cl)CC2)COCC1O (single isomer, unassigned) [Ex-4.71, N-(7-chloro-6-(1-(4-hydroxy-3-methyltetrahydrofuran-3-yl)piperidin-4-yl)isoquinolin-3-yl)-2-(tetrahydro-2H-pyran-2-yl)cyclopropane-1-carboxamide] | 0.0813 nM
22 | CC1(N2CCC(c3cc4cc(NC(=O)C5CC56CCOC6)ncc4cc3Cl)CC2)COCC1F (single isomer, unassigned) [Ex-6.1, (R or S)-N-(7-chloro-6-(1-((3R,4R or 3S,4S)-4-fluoro-3-methyltetrahydrofuran-3-yl)piperidin-4-yl)isoquinolin-3-yl)-5-oxaspiro [2.4] heptane-1-carboxamide] | 42.7 nM
23 | CC1(C)CC(C(=O)Nc2cc3cc(C4CCC(N5CCC(F)C5)CC4)c(Cl)cc3cn2)CCO1 (single isomer, unassigned) [Ex-5.15, N-(7-chloro-6-(4-(3-fluoropyrrolidin-1-yl)cyclohexyl)isoquinolin-3-yl)-2,2-dimethyltetrahydro-2H-pyran-4-carboxamid] | 1.29 nM
24 | CN1CCC(C(=O)Nc2cc3cc(C4CCN(C5(C)COCC5O)CC4)c(Cl)cc3cn2)CC1 (single isomer, unassigned) [Ex-1.19, N-(7-chloro-6-(1-((3R,4R or 3S,4S)-4-hydroxy-3-methyltetrahydrofuran-3-yl)piperidin-4-yl)isoquinolin-3-yl)-1-methylpiperidine-4-carboxamide] | 0.38 nM
25 | C[C@@]1(N2CC[C@@H](c3cc4cc(NC(=O)[C@@H]5CC56CC6)ncc4cc3Cl)[C@H](F)C2)COC[C@@H]1O [Ex-23.2, (R)-N-(7-chloro-6-((3S,4S)-3-fluoro-1-((3R,4R)-4-hydroxy-3-methyltetrahydrofuran-3-yl)piperidin-4-yl)isoquinolin-3-yl)spiro[2.2]pentane-1-carboxamide] | 0.0813 nM
26 | Cn1cc(C(=O)Nc2cc3cc(C4CCN(C5COCC5O)CC4)c(Cl)cc3cn2)cn1 (stereo not drawn) [Ex-3.5] | 0.631 nM
27 | CC1(N2CCC(c3cc4cc(NC(=O)C5C6COCC65)ncc4cc3Cl)CC2)COCC1O (stereo not drawn) [Ex-2.15] | 0.214 nM
28 | CC(C)(O)C1CC1C(=O)Nc1cc2cc(C3CCN(C4(C)COCC4O)CC3)c(Cl)cc2cn1 (single isomer, unassigned) [Ex-4.10, Trans-N-(7-chloro-6-(1-(4-hydroxy-3-methyltetrahydrofuran-3-yl)piperidin-4-yl)isoquinolin-3-yl)-2-(2-hydroxypropan-2-yl)cyclopropane-1-carboxamide] | 0.0813 nM
29 | CC1C(C(=O)Nc2cc3cc(C4CCN(C5(C)COCC5O)CC4)c(Cl)cc3cn2)C12CCOCC2 (single isomer, unassigned) [Ex-10.8, N-(7-chloro-6-(1-(4-hydroxy-3-methyltetrahydrofuran-3-yl)piperidin-4-yl)isoquinolin-3-yl)-2-methyl-6-oxaspiro[2.5]octane-1-carboxamide] | 145 nM
30 | CC1(N2CCC(c3cc4cc(NC(=O)C5CC5c5cncnc5)ncc4cc3Cl)CC2)COCC1O (single isomer, unassigned) [Ex-4.35, N-(7-chloro-6-(1-(4-hydroxy-3-methyltetrahydrofuran-3-yl)piperidin-4-yl)isoquinolin-3-yl)-2-(pyrimidin-5-yl)cyclopropane-1-carboxamide] | 0.692 nM
31 | COC1COCC1(C)N1CCC(c2cc3cc(NC(=O)C4CC45CCOCC5)ncc3cc2Cl)CC1 (single isomer, unassigned) [Ex-6.23, N-(7-chloro-6-(1-(4-methoxy-3-methyltetrahydrofuran-3-yl)piperidin-4-yl)isoquinolin-3-yl)-6-oxaspiro[2.5]octane-1-carboxamide] | 1.82 nM
32 | CC1(N2CCC(c3cc4cc(NC(=O)C5CC5C5CCCO5)ncc4cc3Cl)CC2)COCC1O (single isomer, unassigned) [Ex-4.69, N-(7-chloro-6-(1-(4-hydroxy-3-methyltetrahydrofuran-3-yl)piperidin-4-yl)isoquinolin-3-yl)-2-(tetrahydrofuran-2-yl)cyclopropane-1-carboxamide] | 0.0813 nM
33 | COCC(C)c1cc2cc(NC(=O)C3CC34CCOCC4)ncc2cc1Cl (single isomer, unassigned) [Ex-9.12, N-(7-chloro-6-(1-methoxypropan-2-yl)isoquinolin-3-yl)-6-oxaspiro[2.5]octane-1-carboxamide] | 35.5 nM

From US20240398784A1, “C-LINKED ISOQUINOLINE AMIDES AS LRRK2 INHIBITORS, PHARMACEUTICAL COMPOSITIONS, AND USES THEREOF” (Merck Sharp & Dohme LLC, priority 2021, published 2024)
